Experimental findings from patent US20060276464A1, “Diarylsulfone sulfonamides and use thereof” (Wyeth, priority 2005, published 2006) are described below.

The target of test [1] is T1, SFRP-1 (Homo sapiens, UniProt Q8N474).
T1 sequence (Q8N474 32-314): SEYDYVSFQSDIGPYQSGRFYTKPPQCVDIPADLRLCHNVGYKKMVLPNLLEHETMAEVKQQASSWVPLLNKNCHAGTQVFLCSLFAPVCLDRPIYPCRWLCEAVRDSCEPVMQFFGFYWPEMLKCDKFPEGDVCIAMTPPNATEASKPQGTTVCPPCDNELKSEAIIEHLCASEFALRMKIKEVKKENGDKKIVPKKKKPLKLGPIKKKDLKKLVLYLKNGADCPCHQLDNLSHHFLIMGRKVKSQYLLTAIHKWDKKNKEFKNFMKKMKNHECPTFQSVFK
Put plainly: Cell-based assay for in vitro measurement of SFRP-1/SARP2 antagonist activity (U2OS cells co-transfected with 16x TCF-tk-Luciferase reporter, Wnt and hSFRP-1).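 As to all read-outs here: U2OS cells co-transfected with a TCF-tk luciferase reporter, a Wnt vector, hSFRP-1 or empty vector and CMV-βgal, luciferase luminescence read in cell lysates alongside βgal activity.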 The settings on record: for fold induction at 10 µM: U2OS, read-out: Fold Induction with SFRP-1, U2OS cells, single dose 10 μM, luciferase reporter, fold induction over SFRP-1 control. On the technique in general: Reporter assays use an easily measured gene product as a stand-in for the process of interest.

For test [2], the target named is T1, SFRP-1. Kind of test: Fluorescence polarization binding assay (competitive displacement of a probe compound from SFRP-1).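 Also: test compound competes with a fluorescent probe held by SFRP-1, seen as a drop in probe anisotropy after incubation in darkness, with anisotropy as function of rising compound dose.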 To be noted: fluorescence anisotropy, 45 nM SFRP-1, 20 nM probe.

SMILES strings stand for the structures.

A word on the EC50: it is the concentration needed to bring the measured effect to its halfway point. A lower EC50 goes with higher potency in that assay. A word on the IC50: it is the midpoint of a concentration-inhibition curve. A low value points to inhibition by little substance. As for `CC(C)c1ccc(S(=O)(=O)c2ccc(F)cc2)cc1S(=O)(=O)NC1CCN(C(=S)Nc2cccc3ccccc23)CC1` [Example 690, 4-[({5-[(4-fluorophenyl)sulfonyl]-2-isopropylphenyl}sulfonyl)amino]-N-1-naphthylpiperidine-1-carbothioamide], on SFRP-1 [1], a half-maximal effect (EC50) was put at 8400 nM and the fold induction at 10 µM is 2.3. At SFRP-1 [2], this compound gave an IC50 of 3000 nM.

As to `CC(C)c1ccc(S(=O)(=O)c2ccc(F)cc2)cc1S(=O)(=O)NC1CCN(C(=S)Nc2ccccc2F)CC1` [Example 691, N-(2-fluorophenyl)-4-[({5-[(4-fluorophenyl)sulfonyl]-2-isopropylphenyl}sulfonyl)amino]piperidine-1-carbothioamide], at SFRP-1 [1], the EC50 was found to be 8600 nM and the fold induction at 10 µM stood at 2.8. The same compound came in with an IC50 at SFRP-1 [2] of 1000 nM.

For the compound `Cc1ccccc1NC(=S)N1CCC(NS(=O)(=O)c2cc(S(=O)(=O)c3ccc(F)cc3)ccc2C(C)C)CC1` [Example 692, 4-[({5-[(4-fluorophenyl)sulfonyl]-2-isopropylphenyl}sulfonyl)amino]-N-(2-methylphenyl)piperidine-1-carbothioamide], at SFRP-1 [1], the EC50 amounted to 8500 nM and the fold induction at 10 µM is 3. Moreover, at SFRP-1 [2], the IC50 came out at 1700 nM.

Take `CCOC(=O)NC(=S)N1CCC(NS(=O)(=O)c2cc(S(=O)(=O)c3ccc(F)cc3)ccc2C(C)C)CC1` [Example 693, ethyl({4-[({5-[(4-fluorophenyl)sulfonyl]-2-isopropylphenyl}sulfonyl)amino]piperidin-1-yl}carbonothioyl)carbamate]: on SFRP-1 [1], the midpoint of the response, the EC50, lay at 1080 nM and the fold induction at 10 µM was found to be 3.5. The IC50 on SFRP-1 [2] turned out to be 400 nM.

Regarding `CCCCNC(=S)N1CCC(NS(=O)(=O)c2cc(S(=O)(=O)c3ccc(F)cc3)ccc2C(C)C)CC1` [Example 694, N-butyl-4-[({5-[(4-fluorophenyl)sulfonyl]-2-isopropylphenyl}sulfonyl)amino]piperidine-1-carbothioamide], at SFRP-1 [1], the EC50 was found to be 8700 nM and the fold induction at 10 µM turned out to be 2.6. For the same compound, at SFRP-1 [2], the IC50 amounted to 2900 nM.

Regarding `COc1ccc(NC(=S)N2CCC(NS(=O)(=O)c3cc(S(=O)(=O)c4ccc(F)cc4)ccc3C(C)C)CC2)cc1` [Example 695, 4-[({5-[(4-fluorophenyl)sulfonyl]-2-isopropylphenyl}sulfonyl)amino]-N-(4-methoxyphenyl)piperidine-1-carbothioamide], at SFRP-1 [1], it took 7100 nM to reach a half-maximal effect (EC50) and the fold induction at 10 µM amounted to 2.1. This compound returned a half-inhibitory concentration (IC50) at SFRP-1 [2] of 190 nM.

With `COC(=O)c1ccc(NC(=S)N2CCC(NS(=O)(=O)c3cc(S(=O)(=O)c4ccc(F)cc4)ccc3C(C)C)CC2)cc1` [Example 696, methyl 4-[({4-[({5-[(4-fluorophenyl)sulfonyl]-2-isopropylphenyl}sulfonyl)amino]piperidin-1-yl}carbonothioyl)amino]benzoate], on SFRP-1 [1], the EC50 worked out at 14700 nM and the fold induction at 10 µM stood at 2.2. The same compound gave an IC50 at SFRP-1 [2] of 1100 nM.

On to `COC(=O)CNC(=S)N1CCC(NS(=O)(=O)c2cc(S(=O)(=O)c3ccc(F)cc3)ccc2C(C)C)CC1` [Example 697, methyl N-({4-[({5-[(4-fluorophenyl)sulfonyl]-2-isopropylphenyl}sulfonyl)amino]piperidin-1-yl}carbonothioyl)glycinate], for which, at SFRP-1 [1], a half-maximal effect (EC50) was put at 452 nM and the fold induction at 10 µM worked out at 3.7. This compound gave an IC50 on SFRP-1 [2] of 400 nM.

With `CC(C)c1ccc(S(=O)(=O)c2ccc(F)cc2)cc1S(=O)(=O)NC1CCN(C(=S)NCCN2CCOCC2)CC1` [Example 698, 4-[({5-[(4-fluorophenyl)sulfonyl]-2-isopropylphenyl}sulfonyl)amino]-N-(2-morpholin-4-ylethyl)piperidine-1-carbothioamide], at SFRP-1 [1], the EC50 was 609 nM and the fold induction at 10 µM amounted to 3. The compound also displayed an IC50 at SFRP-1 [2] of 700 nM.

On to `CC(C)c1ccc(S(=O)(=O)c2ccc(F)cc2)cc1S(=O)(=O)NC1CCN(C(=S)Nc2cccc([N+](=O)[O-])c2)CC1` [Example 699, 4-[({5-[(4-fluorophenyl)sulfonyl]-2-isopropylphenyl}sulfonyl)amino]-N-(3-nitrophenyl)piperidine-1-carbothioamide], for which, at SFRP-1 [1], a half-maximal response (EC50) required 9800 nM and the fold induction at 10 µM came to 2.9. The compound also registered an IC50 at SFRP-1 [2] of 1600 nM.

For `CC(C)c1ccc(S(=O)(=O)c2ccc(F)cc2)cc1S(=O)(=O)NC1CCN(C(=S)Nc2cccc(C(=O)O)c2)CC1` [Example 700, 3-[({4-[({5-[(4-fluorophenyl)sulfonyl]-2-isopropylphenyl}sulfonyl)amino]piperidin-1-yl}carbonothioyl)amino]benzoic acid], at SFRP-1 [1], the response was half-maximal at 397 nM (EC50) and the fold induction at 10 µM is 1.7. For the same compound, the IC50 on SFRP-1 [2] was found to be 500 nM.

As for `CC(C)c1ccc(S(=O)(=O)c2ccc(F)cc2)cc1S(=O)(=O)NC1CCN(C(=S)Nc2cccnc2)CC1` [Example 701, 4-[({5-[(4-fluorophenyl)sulfonyl]-2-isopropylphenyl}sulfonyl)amino]-N-pyridin-3-ylpiperidine-1-carbothioamide], at SFRP-1 [1], the midpoint of the response, the EC50, lay at 698 nM and the fold induction at 10 µM worked out at 3. Further, on SFRP-1 [2], the IC50 stood at 700 nM.

With `COc1ccccc1C(=O)N1CCC(NS(=O)(=O)c2cc(S(=O)(=O)c3ccccc3)ccc2C(F)(F)F)CC1` [Example 703, N-[1-(2-methoxybenzoyl)piperidin-4-yl]-5-(phenylsulfonyl)-2-(trifluoromethyl)benzenesulfonamide], at SFRP-1 [1], the EC50 turned out to be 1200 nM and the fold induction at 10 µM amounted to 4.8. Further, the IC50 at SFRP-1 [2] stood at 160 nM.

For the compound `O=C(c1ccc(F)c(F)c1)N1CCC(NS(=O)(=O)c2cc(S(=O)(=O)c3ccccc3)ccc2C(F)(F)F)CC1` [Example 705, N-[1-(3,4-difluorobenzoyl)piperidin-4-yl]-5-(phenylsulfonyl)-2-(trifluoromethyl)benzenesulfonamide], at SFRP-1 [1], the EC50 worked out at 787 nM and the fold induction at 10 µM was found to be 3.5. The compound also had an IC50 on SFRP-1 [2] of 200 nM.

As for `O=C(c1cc(F)cc(F)c1)N1CCC(NS(=O)(=O)c2cc(S(=O)(=O)c3ccccc3)ccc2C(F)(F)F)CC1` [Example 706, N-[1-(3,5-difluorobenzoyl)piperidin-4-yl]-5-(phenylsulfonyl)-2-(trifluoromethyl)benzenesulfonamide], on SFRP-1 [1], the EC50 is 503 nM and the fold induction at 10 µM was 3.7. For the same compound, the IC50 at SFRP-1 [2] worked out at 180 nM.

Turning to `COc1cccc(OC)c1C(=O)N1CCC(NS(=O)(=O)c2cc(S(=O)(=O)c3ccccc3)ccc2C(F)(F)F)CC1` [Example 707, N-[1-(2,6-dimethoxybenzoyl)piperidin-4-yl]-5-(phenylsulfonyl)-2-(trifluoromethyl)benzenesulfonamide], on SFRP-1 [1], a half-maximal effect (EC50) was put at 187 nM and the fold induction at 10 µM is 4.2. On SFRP-1 [2], the IC50 turned out to be 200 nM.

On to `COc1ccc(C(=O)N2CCC(NS(=O)(=O)c3cc(S(=O)(=O)c4ccccc4)ccc3C(F)(F)F)CC2)c(OC)c1` [Example 708, N-[1-(2,4-dimethoxybenzoyl)piperidin-4-yl]-5-(phenylsulfonyl)-2-(trifluoromethyl)benzenesulfonamide], for which, at SFRP-1 [1], the EC50 was found to be 1170 nM and the fold induction at 10 µM came to 3.7. The same compound yielded an IC50 at SFRP-1 [2] of 300 nM.

Consider `O=C(c1ccc(OC(F)(F)F)cc1)N1CCC(NS(=O)(=O)c2cc(S(=O)(=O)c3ccccc3)ccc2C(F)(F)F)CC1` [Example 709, 5-(phenylsulfonyl)-N-{1-[4-(trifluoromethoxy)benzoyl]piperidin-4-yl}-2-(trifluoromethyl)benzenesulfonamide], for which, on SFRP-1 [1], the EC50 amounted to 2350 nM and the fold induction at 10 µM was determined as 4.5. This compound also registered an IC50 at SFRP-1 [2] of 400 nM.

In the case of `O=C(c1ccc(C(F)(F)F)cc1F)N1CCC(NS(=O)(=O)c2cc(S(=O)(=O)c3ccccc3)ccc2C(F)(F)F)CC1` [Example 710, N-{1-[2-fluoro-4-(trifluoromethyl)benzoyl]piperidin-4-yl}-5-(phenylsulfonyl)-2-(trifluoromethyl)benzenesulfonamide], the fold induction at 10 µM at SFRP-1 [1] stood at 3.5. On SFRP-1 [2], this compound showed an IC50 of 700 nM.

As to `O=C(c1ccc(C(F)(F)F)c(F)c1)N1CCC(NS(=O)(=O)c2cc(S(=O)(=O)c3ccccc3)ccc2C(F)(F)F)CC1` [Example 711, N-{1-[3-fluoro-4-(trifluoromethyl)benzoyl]piperidin-4-yl}-5-(phenylsulfonyl)-2-(trifluoromethyl)benzenesulfonamide], on SFRP-1 [1], a half-maximal response (EC50) required 9400 nM and the fold induction at 10 µM stood at 3.3. The compound further had an IC50 on SFRP-1 [2] of 300 nM.

Consider `O=C(c1ccc(Cl)c(Cl)c1)N1CCC(NS(=O)(=O)c2cc(S(=O)(=O)c3ccccc3)ccc2C(F)(F)F)CC1` [Example 712, N-[1-(3,4-dichlorobenzoyl)piperidin-4-yl]-5-(phenylsulfonyl)-2-(trifluoromethyl)benzenesulfonamide], for which the fold induction at 10 µM at SFRP-1 [1] is 2.9. The compound also registered an IC50 at SFRP-1 [2] of 500 nM.

As for `COc1cc(C(=O)N2CCC(NS(=O)(=O)c3cc(S(=O)(=O)c4ccccc4)ccc3C(F)(F)F)CC2)cc(Cl)n1` [Example 715, N-[1-(2-chloro-6-methoxyisonicotinoyl)piperidin-4-yl]-5-(phenylsulfonyl)-2-(trifluoromethyl)benzenesulfonamide], on SFRP-1 [1], the EC50 is 1290 nM and the fold induction at 10 µM was determined as 4.9. In addition, at SFRP-1 [2], the IC50 is 400 nM.
